Laboratory results reported in US4746648A, “Peptide derivatives which inhibit renin and acid proteases” (Sanofi; Institut National de la Recherche Medicale, priority 1985, dated 1988).
Starred links: 1 amine or outer side, 2 acyl side, 3 side chain; linkers in the order of their positions; H or OH if unused. Non-standard residues stand in square brackets, D forms with d. Residues, ends and D or L forms follow the SMILES beside them. ξ: configuration not given here. *: point of attachment. X9 = CCn1cnc(C[C@H](N[*:1])C(=O)[*:2])c1; His(τ-Me) = Cn1cnc(C[C@H](N)C(=O)O)c1; Sta = CC(C)C[C@H](N)[C@@H](O)CC(=O)O; X10 = Cc1nc(C(N[*:1])C(=O)[*:2])cs1; Gly(cPent) = N[C@H](C(=O)O)C1CCCC1; Phg = N[C@H](C(=O)O)c1ccccc1; ξ3Pal = NC(Cc1cccnc1)C(=O)O; ξ4Pal = NC(Cc1ccncc1)C(=O)O; Isovaleryl = CC(C)CC(=O)*; Boc = CC(C)(C)OC(=O)*; OBn = c1ccc(CO*)cc1; X4 = c1ccc(C*)nc1; tBu = CC(C)(C)*

What follows are compounds tested against T1, human plasma renin activity (PRA) (Homo sapiens, UniProt P00797) (assay: Inhibition of human plasma renin activity (PRA) in vitro, angiotensin I released measured by radioimmunoassay). Settings: human plasma pool rich in renin, 60 min at 37° C., phosphate buffer pH 7.4; -log IC50.
T1 construct: from tissue; host or cells: human plasma pool
T1 sequence (P00797 67-406): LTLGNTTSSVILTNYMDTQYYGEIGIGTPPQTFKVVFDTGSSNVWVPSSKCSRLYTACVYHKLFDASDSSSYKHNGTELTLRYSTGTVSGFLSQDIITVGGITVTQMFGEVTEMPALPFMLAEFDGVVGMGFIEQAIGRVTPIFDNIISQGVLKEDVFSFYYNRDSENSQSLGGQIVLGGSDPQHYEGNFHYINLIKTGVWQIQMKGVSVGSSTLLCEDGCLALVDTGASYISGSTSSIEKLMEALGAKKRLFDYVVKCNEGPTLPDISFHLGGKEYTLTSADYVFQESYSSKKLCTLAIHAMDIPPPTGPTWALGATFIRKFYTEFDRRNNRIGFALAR
Format: biochemical
Method: Human plasma contains the substrate angiotensinogen and the enzyme renin. […] An inhibitor of the conversion enzyme, phenylmethylsulfonyl fluoride (PMSF), is added to the incubation medium.
420 microliters of human plasma
11 to 50 microliters of the product to be studied, at variable concentrations
A solution of acetic acid in methanol (19/1 by volume) and a solution of sodium hydroxide in methanol (2/1 by volume) are prepared. In a mixture of equal volumes of these 2 solutions, a 0.001M stock solution of the peptide is prepared. The subsequent dilutions of the peptide are then made up in the phosphate buffer.
The results are expressed by their logarithmic value (-log IC50).

Row | Inhibition of human PRA -log IC50 M pH 7.4 | Compound
1 | 6.16 -log M | Boc--Phe--(1-methylimidazol-2-yl)Ala--AHPPA--Ala--Sta--OCH3 [SR 43428]
2 | 5.21 -log M | Boc-Phe-(Pyr-2)Ala-Sta-Leu-Phe-OMe [SR 43150]

Same assay, conditions: human plasma pool rich in renin, 60 min at 37° C., phosphate buffer pH 7.4; -log IC50; listed as 41 151

Row | Inhibition of human PRA -log IC50 M pH 7.4 | Compound
3 | 6.66 -log M | Boc-Phe-(Pyr-2)Ala-Sta-Leu-Phe-OMe [SR 43151]

Same assay, conditions: read-out: Inhibition of human PRA -log IC50 M pH 7.4 (converted)

Row | IC50 [nM] | Compound
4 | 93.3 | COC(=O)C[C@H](O)[C@H](CC(C)C)NC(=O)[C@H](C)NC(=O)C[C@H](O)[C@H](CC(C)C)NC(=O)[C@@H](NC(=O)[C@H](Cc1ccccc1)NC(=O)OC(C)(C)C)c1ccccc1 [SR 42823, Boc--Phe--Phg--Sta--Ala--Sta--OMe] (Boc-F[Phg][Sta]A[Sta]-OMe)
5 | 398 | COC(=O)[C@H](CC(C)C)NC(=O)[C@H](C)NC(=O)C[C@H](O)[C@H](CC(C)C)NC(=O)[C@H](CC(=O)OCc1ccccc1)NC(=O)[C@H](Cc1ccccc1)NC(=O)OC(C)(C)C [SR 42926, Boc-Phe-(PhCH2)Asp-Sta-Ala-Leu-OMe] (Boc-FD(OBn)[Sta]AL-OMe)
6 | 3020 | COC(=O)[C@H](CC(C)C)NC(=O)[C@H](C)NC(=O)C[C@H](O)[C@H](CC(C)C)NC(=O)C(NC(=O)[C@H](Cc1ccccc1)NC(=O)OC(C)(C)C)c1csc(C)n1 (stereo partly drawn) [SR 43059, Boc-Phe-(2-methylthiazol-4-yl)Gly-Sta-Ala-Leu-OMe] (Boc-F[X10][Sta]AL-OMe)
7 | 316 | COC(=O)[C@H](Cc1ccccc1)NC(=O)[C@H](CC(C)C)NC(=O)C[C@H](O)[C@H](CC(C)C)NC(=O)C(Cc1cccnc1)NC(=O)[C@H](Cc1ccccc1)NC(=O)OC(C)(C)C (stereo partly drawn) [SR 43064, Boc-Phe-(Pyr-3)Ala-Sta-Leu-Phe-OMe] (Boc-F[ξ3Pal][Sta]LF-OMe)
8 | 1320 | COC(=O)[C@H](Cc1ccccc1)NC(=O)[C@H](CC(C)C)NC(=O)C[C@H](O)[C@H](CC(C)C)NC(=O)C(Cc1ccncc1)NC(=O)[C@H](Cc1ccccc1)NC(=O)OC(C)(C)C (stereo partly drawn) [SR 43144, Boc-Phe-(Pyr-4)Ala-Sta-Leu-Phe-OMe] (Boc-F[ξ4Pal][Sta]LF-OMe)
9 | 2140 | COC(=O)C[C@H](O)[C@H](CC(C)C)NC(=O)[C@H](C)NC(=O)C[C@H](O)[C@H](CC(C)C)NC(=O)[C@H](COC(C)(C)C)NC(=O)[C@H](Cc1ccccc1)NC(=O)OC(C)(C)C [SR 43297, Boc--Phe--((CH3)3 CO)Ser--Sta--Ala--Sta--OMe] (Boc-FS(tBu)[Sta]A[Sta]-OMe)
10 | 64.6 | CCn1cnc(C[C@H](NC(=O)[C@H](Cc2ccccc2)NC(=O)OC(C)(C)C)C(=O)N[C@@H](CC(C)C)[C@@H](O)CC(=O)N[C@@H](C)C(=O)N[C@@H](CC(C)C)[C@@H](O)CC(=O)OC)c1 [SR 43391, Boc--Phe--(tauEt)His--Sta--Ala--Sta--OMe] (Boc-F[X9][Sta]A[Sta]-OMe)
11 | 417 | COC(=O)C[C@H](O)[C@H](CC(C)C)NC(=O)[C@H](C)NC(=O)C[C@H](O)[C@H](CC(C)C)NC(=O)C(Cc1cccnc1)NC(=O)[C@H](Cc1ccccc1)NC(=O)OC(C)(C)C (stereo partly drawn) [SR 43429, Boc-Phe-(Pyr-3)Ala-Sta-Ala-Sta-OMe] (Boc-F[ξ3Pal][Sta]A[Sta]-OMe)
12 | 37.2 | COC(=O)C[C@H](O)[C@H](CC(C)C)NC(=O)[C@H](C)NC(=O)C[C@H](O)[C@H](CC(C)C)NC(=O)[C@@H](NC(=O)[C@H](Cc1ccccc1)NC(=O)OC(C)(C)C)C1CCCC1 [SR 43554, Boc--Phe--Cpg--Sta--Ala--Sta--OMe] (Boc-F[Gly(cPent)][Sta]A[Sta]-OMe)
13 | 316 | COC(=O)C[C@H](O)[C@H](CC(C)C)NC(=O)[C@H](C)NC(=O)C[C@H](O)[C@H](CC(C)C)NC(=O)[C@H](COCc1ccccn1)NC(=O)[C@H](Cc1ccccc1)NC(=O)OC(C)(C)C [SR 43555, Boc--Phe--((Pyr--2)CH2 O)Ser--Sta--Ala--Sta--OMe] (Boc-FS(X4)[Sta]A[Sta]-OMe)
14 | 151 | CC(C)CC(=O)N[C@@H](Cc1ccccc1)C(=O)N[C@@H](Cc1cn(C)cn1)C(=O)N[C@@H](CC(C)C)[C@@H](O)CC(=O)N[C@@H](C)C(=O)N[C@@H](CC(C)C)[C@@H](O)CC(=O)O [SR 43761, iVa--Phe--(tauMe)His--Sta--Ala--Sta--OH] (Isovaleryl-F[His(τ-Me)][Sta]A[Sta]-OH)
